Patent US20040157800A1, “Ascorbyl derivatives of carnitines and cosmetic compositions containing same” (priority 2001, published 2004)
Structures can show the parent of a compound that is named as a salt.

Assay: Weight increase, appearance and flowability after exposure to humidity (hygroscopicity)
Type: physicochemical
Conditions: for Appearance / Weight increase (%): 60% relative humidity at 25° C. for 42 hours; for Hygroscopicity of the solid (in words): isolated crystalline solid; for Flowability: time needed by a 10-gram sample to pass through a funnel of 4 mm diameter, after 60% relative humidity at 25° C. for 42 hours
Method: In the following Table 1, the weight increase (%) and the flowability of the compounds of the invention are compared with those of L-carnitine and acetyl L-carnitine inner salts following exposure of the compounds to 60% relative humidity at 25° C. for 42 hours. Reference method:
Pharmaeuropa November 1996.

Molecule	Appearance	Weight increase (%)	Hygroscopicity of the solid (in words)	Flowability
C[N+](C)(C)C[C@H](O)CC(=O)[O-] [L-carnitine Inner salt, L-carnitine inner salt, reference compound]	deliquescent	19%		
CC(=O)O[C@H](CC(=O)[O-])C[N+](C)(C)C [acetyl L-carnitine Inner salt, acetyl L-carnitine inner salt, reference compound]	deliquescent	20%		
Acetyl L-Carnitine Magnesium Ascorbyl Phosphate [Example 2]	no variation	0.14%	non-hygroscopic	6 s
L-Carnitine Magnesium Ascorbyl Phosphate [Example 1]	no variation	0.12%	non-hygroscopic	5 s
